Source: PubChem BioAssay (NCI)
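A five-concentration, 48-hour dose response in 96-well plates underlies each endpoint, interpolated linearly between surrounding concentrations. GI50 = concentration required for 50% inhibition of growth. At the TGI there is no net growth.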

Columns and labels:
Test in all cases: NCI-60 cell line screen, 48 h
[1] = test system: NCI-H522 lung
[2] = test system: HOP-62 NSCLC
[3] = test system: NCI-H23 lung
[4] = test system: SR leukemia
[5] = test system: T-47D breast
[6] = test system: SK-OV-3 ovarian
[7] = test system: UACC-62 melanoma
[8] = test system: ACHN renal
[9] = test system: SK-MEL-2 melanoma
[10] = test system: HT29 colon
[11] = test system: IGROV1 ovarian
[12] = test system: SNB-19 CNS
[13] = test system: SN12C renal
[14] = test system: K-562 leukemia
[15] = test system: HCC-2998 colon
[16] = test system: SF-295 CNS
[17] = test system: SK-MEL-5 melanoma
[18] = test system: HOP-92 NSCLC
[19] = test system: HS 578T breast
[20] = test system: MOLT-4 leukemia
[21] = test system: MDA-N
[22] = test system: HCT-15 colon
[23] = test system: UACC-257 melanoma
[24] = test system: PC-3 prostate
[25] = test system: OVCAR-4 ovarian
[26] = test system: OVCAR-8 ovarian
[27] = test system: CCRF-CEM leukemia
[28] = test system: MALME-3M melanoma
[29] = test system: COLO 205 colon
[30] = test system: U251 CNS
[31] = test system: SF-539 CNS
[32] = test system: HCT-116 colon
[33] = test system: SW-620 colon
[34] = test system: NCI-H226 lung
[35] = test system: BT-549 breast
[36] = test system: UO-31 renal
[37] = test system: HL-60(TB) leukemia
[38] = test system: CAKI-1 renal
[39] = test system: NCI/ADR-RES ovarian
[40] = test system: MDA-MB-231 breast
[41] = test system: EKVX NSCLC
[42] = test system: M14 melanoma
[43] = test system: RPMI-8226 leukemia
[44] = test system: OVCAR-3 ovarian
[45] = test system: NCI-H460 lung
[46] = test system: A498 renal
[47] = test system: A549 NSCLC
[48] = test system: KM12 colon
[49] = test system: SNB-75 CNS
[50] = test system: LOX IMVI melanoma
[51] = test system: OVCAR-5 ovarian
[52] = test system: MCF7 breast
[53] = test system: SK-MEL-28 melanoma
[54] = test system: RXF 393 renal
[55] = test system: TK-10 renal
[56] = test system: DU-145 prostate
[57] = test system: 786-0 renal
[58] = test system: MDA-MB-435
[59] = test system: SF-268 CNS

Molecule `CN1CCC(CN2c3ccccc3Sc3ccccc32)C1` (stereo not given) has a TGI [1] of 32 µM, a TGI [2] of 28.5 µM and a TGI [3] of 36 µM. For the same molecule, the TGI [4] was 29.6 µM, the TGI [5] was 34.2 µM and the TGI [6] was 31.6 µM. It also gave a TGI [7] of 25.9 µM, a TGI [8] of 27.9 µM and a TGI [9] of 30.6 µM. The TGI [10] was 23.8 µM, the TGI [11] was 31.6 µM and the TGI [12] was 33.1 µM. The TGI [13] was 29.1 µM, the TGI [14] was 27.4 µM and the TGI [15] was 24.7 µM. It also gave a TGI [16] of 29.8 µM, a TGI [17] of 27.7 µM and a TGI [18] of 29.5 µM. For the same molecule, the TGI [19] was 36.7 µM, the TGI [20] was 38.7 µM and the TGI [21] was 27.7 µM. The TGI [22] was 31.4 µM, the TGI [23] was 24.4 µM and the TGI [24] was 25.4 µM. The TGI [25] was 28.1 µM, the TGI [26] was 31.9 µM and the TGI [27] was 31.6 µM. The TGI [28] was 31.7 µM, the TGI [29] was 25.2 µM and the TGI [30] was 26.6 µM. It also gave a TGI [31] of 31.9 µM, a TGI [32] of 26.9 µM and a TGI [33] of 35.7 µM. The TGI [34] was 35 µM, the TGI [35] was 30.8 µM and the TGI [36] was 30 µM. It also gave a TGI [37] of 29.7 µM, a TGI [38] of 28.8 µM and a TGI [39] of 29.8 µM. For the same molecule, the TGI [40] was 27.4 µM, the TGI [41] was 31.5 µM and the TGI [42] was 23.5 µM. For the same molecule, the TGI [43] was 33.8 µM, the TGI [44] was 28.6 µM and the TGI [45] was 28.2 µM. The TGI [46] was 26.2 µM, the TGI [47] was 32.2 µM and the TGI [48] was 34.5 µM. It also gave a TGI [49] of 11.1 µM, a TGI [50] of 30 µM and a TGI [51] of 31.8 µM. The TGI [52] was 35 µM, the TGI [53] was 19.4 µM and the TGI [54] was 17.4 µM. It also gave a TGI [55] of 31.4 µM, a TGI [56] of 38.1 µM and a TGI [57] of 27.9 µM. It also gave a TGI [58] of 23.7 µM and a TGI [59] of 29.5 µM.
For `O=S(=O)(Nc1nccs1)c1ccc(Nc2nc(-c3cccs3)nc3ccc(I)cc23)cc1`, the TGI [1] was greater than 73.1 µM, the TGI [2] was 51.1 µM and the TGI [3] was greater than 75.8 µM. The TGI [4] was 68.4 µM, the TGI [5] was 56.6 µM and the TGI [6] was 67 µM. For the same molecule, the TGI [7] was 52.6 µM, the TGI [8] was greater than 75.2 µM and the TGI [9] was greater than 77.9 µM. The TGI [10] was 51.7 µM, the TGI [11] was 58.7 µM and the TGI [12] was greater than 93 µM. It also gave a TGI [13] greater than 74.6 µM, a TGI [14] greater than 55.8 µM and a TGI [15] of 51.5 µM. For the same molecule, the TGI [16] was 43.1 µM, the TGI [17] was 28.4 µM and the TGI [18] was 40 µM. For the same molecule, the GI50 [19] was 14 µM, the TGI [19] was greater than 70 µM and the TGI [20] was greater than 62.4 µM. For the same molecule, the TGI [21] was greater than 100 µM, the TGI [22] was greater than 80.9 µM and the TGI [23] was greater than 65.7 µM. The TGI [24] was 32.7 µM, the TGI [25] was 63.2 µM and the TGI [26] was greater than 69.4 µM. The TGI [27] was greater than 19.9 µM, the TGI [28] was 44.2 µM and the TGI [29] was 38.2 µM. For the same molecule, the TGI [30] was 54.7 µM, the TGI [31] was 68.3 µM and the TGI [32] was 36.8 µM. For the same molecule, the TGI [33] was greater than 59.6 µM, the TGI [34] was 74.8 µM and the TGI [35] was 54 µM. For the same molecule, the TGI [36] was 65.1 µM, the TGI [37] was greater than 89.3 µM and the TGI [38] was 48.7 µM. The TGI [39] was greater than 100 µM, the GI50 [40] was greater than 37.8 µM and the TGI [40] was greater than 57.2 µM. It also gave a TGI [41] of 48.1 µM, a TGI [42] of 58.5 µM and a TGI [43] of 20.1 µM. For the same molecule, the TGI [44] was 39.9 µM, the TGI [45] was greater than 81.6 µM and the GI50 [46] was 17.4 µM. For the same molecule, the TGI [46] was greater than 62.3 µM, the TGI [47] was 71.2 µM and the TGI [48] was 44.1 µM. The TGI [49] was 74 µM, the TGI [50] was 51.8 µM and the TGI [51] was 86.3 µM. The TGI [52] was greater than 100 µM, the TGI [53] was 56 µM and the TGI [54] was greater than 92.2 µM. The TGI [55] was 44.5 µM, the TGI [56] was 46.5 µM and the TGI [57] was 89.4 µM. For the same molecule, the TGI [58] was 44 µM and the TGI [59] was greater than 100 µM.
In the case of `CCOc1ccc(C2Oc3c(cccc3OC)C=C2[N+](=O)[O-])cc1OCC` (stereo not given), the TGI [1] was 3.7 µM, the TGI [2] was 19.2 µM and the TGI [3] was 19.7 µM. The TGI [4] was 5.6 µM, the TGI [5] was greater than 47.5 µM and the TGI [6] was 64.9 µM. The TGI [7] was 23.3 µM, the TGI [8] was 14.6 µM and the TGI [9] was 19.8 µM. It also gave a TGI [10] of 8.11 µM, a TGI [11] of 11.1 µM and a TGI [12] of 45.2 µM. It also gave a TGI [13] greater than 67.1 µM, a TGI [14] of 5.19 µM and a TGI [15] of 38.3 µM. The TGI [16] was 32.4 µM, the TGI [17] was 16.6 µM and the TGI [18] was 27 µM. It also gave a TGI [19] greater than 100 µM, a TGI [20] greater than 28.4 µM and a TGI [21] of 5.79 µM. The TGI [22] was 19 µM, the TGI [23] was 12.8 µM and the TGI [24] was 14.9 µM. It also gave a TGI [25] of 43.9 µM, a TGI [26] of 4.75 µM and a TGI [27] of 6.88 µM. For the same molecule, the TGI [28] was 5.74 µM, the TGI [29] was 12.8 µM and the TGI [30] was 12.9 µM. The TGI [31] was 5.24 µM, the TGI [32] was 3.31 µM and the TGI [33] was 4.22 µM. For the same molecule, the TGI [34] was 46.6 µM, the TGI [35] was 29.6 µM and the TGI [36] was 8.8 µM. The TGI [37] was 7.07 µM, the TGI [38] was 17.3 µM and the TGI [39] was 17.9 µM. For the same molecule, the TGI [40] was 10.1 µM, the TGI [41] was 40 µM and the TGI [42] was 7.01 µM. For the same molecule, the TGI [43] was 6.49 µM, the TGI [44] was 19.6 µM and the TGI [45] was 26.8 µM. It also gave a TGI [46] of 24 µM, a TGI [47] of 49.4 µM and a TGI [48] of 20.1 µM. For the same molecule, the TGI [49] was greater than 56.5 µM, the TGI [50] was 5.52 µM and the TGI [51] was 23.3 µM. It also gave a TGI [52] greater than 100 µM, a TGI [53] of 5.74 µM and a TGI [54] of 11.5 µM. The TGI [55] was 31.6 µM, the TGI [56] was 28.6 µM and the TGI [57] was 9.77 µM. For the same molecule, the TGI [58] was 16.7 µM and the TGI [59] was 47.2 µM.
